# Values joined by “and” are separate entries in the source; they are usually repeats but may differ in a detail not shown here. Equal entries are not always repeated. Where two headings read alike, the source gives them in different places.
# Tests used:
# [1] = system: right ventricular muscle strips and right or left ventricular papillary muscles; assay: Ventricular muscle model of SMA and STA; parameters: species or system rat; settings: paced at 0.5 Hz, added to the superfusate in appropriate amounts
# Excerpt: To further establish this model as a general test for arrhythmic and anti-arrhythmic agents, right ventricular muscle strips and right or left ventricular papillary muscles were isolated from anesthetized rats as cardiac muscle exemplars using methods known to persons skilled in the art. Additional exemplars could include ventricular or atrial conduction system cells and the SAN itself. These muscles were then superfused as described above and paced at 0.5 Hz.
# [2] = system: rat left atrial appendage; assay: 2-APB-induced spontaneous mechanical activity (SMA/SMEs) in isolated superfused rat left atria / left atrial appendage
# [3] = system: isolated atrial and ventricular muscle; settings: >20 μM 2-APB with an agent that increases myocyte calcium load
# Protocol: Specifically, isolated, superfused heart muscle, atrial or ventricular, treated with an appropriate concentration of 2-APB (>20 μM) and with an agent that increases myocyte calcium load was exposed to external pacing that stimulates the muscle at a physiological rate and with strength just sufficient to capture it.
# rat right atria = assay: Right atrial spontaneous (pacemaker-driven) contraction frequency; settings: 30 nM isoproterenol
# Protocol: Male Sprague-Dawley rats (325-400 g) were anesthetized with intra-peritoneal pentobarbital (0.1 g/kg). Their right and left atria were isolated, superfused at 30° C. in Krebs-Henseleit buffer, and nearly isometric forces of contraction were measured from these muscles (Wolkowicz et al., 2002). 2-APB was prepared as a 150 mM dimethyl sulfoxide stock.
# Left atria (n=9) were paced at 0.1 Hz, treated with 300 nM BayK 8644 for 5 min, then with 20 μM 2-APB for 10 min, and the pacing stimulus was stopped. These preparations then were incubated with six increasing concentrations of zatebradine (10-100 μM) for 3-5 min at each concentration, and rates of SMA were recorded. Untreated right atria (n=9) also were titrated with zatebradine and its effect on contraction frequency was recorded.
# To test whether zatebradine affects the SMA occurring in the presence of 2-APB and isoproterenol, left atria (n=7) were paced at 0.1 Hz, treated with 30 nM isoproterenol for 5 min, then with 20 μM 2-APB for 10 min, and the pacing stimulus was stopped. Rates of SMA were recorded, these left atria were exposed to 70 μM zatebradine for 10 min, and rates of SMA were recorded again. A group of right atria (n=7) also were exposed to 30 nM isoproterenol for 5 min and then to 70 μM zatebradine for 10 min. Right atrial contraction frequency was recorded at these two times.
# To test whether ZD-7288 (4-Ethylphenyl amino-1,2-dimethyl-6-methylaminopyridinium chloride), an If inhibitor structurally unrelated to zatebradine (Baruscotti et al., 2005; Sanders et al., 2006) affects the SMA occurring in the presence of 2-APB and BayK 8644, rat left atria (n=7) were treated with 300 nM BayK 8644 for 5 min, then with 20 μM 2-APB for 10 min, and the rates of SMA were recorded. These atria then were incubated with six increasing concentrations of ZD-7288 (10-100 μM) for 3-5 min at each concentration, and the rates of SMA were recorded. Right atria (n=7) were titrated similarly with ZD-7288 (0-100 μM) and the change in their contraction frequency was recorded.
# [4] = no 2-APB, 30 nM isoproterenol, 3 μM forskolin, 300 nM BayK 8644 or FPL-64176, 120 μM ouabain, 600 nM ryanodine
compound,measurement,setting,value
"NCCOB(c1ccccc1)c1ccccc1 [2-APB, 2-aminoethoxydiphenyl borate]",ventricular SMA,[1],ventricular SMA was observed
same,2-APB concentration giving intermittent increases in left atrial mechanical force independent of pacing (SMEs),[2],> 7.5 µM
same,2-APB concentration producing sporadic mechanical events in the absence of pacing stimulus,[2],> 10 M
same,SMEs during rest,[2],numerous SMEs during rest
same,SMEs giving way to SMA,[2],Repeated SMEs
same,SMEs in slowly paced preparations,[2],only few SMEs
same,rate of SMA,[2],47±6 contractions/min and ~50 contractions/min
same,mechanical activity under physiological-rate pacing,[3],"disorganized, fibrillation-like mechanical activity"
"COC(=O)C1=C(C)NC(C)=C([N+](=O)[O-])[C@H]1c1ccccc1C(F)(F)F [BayK 8644, (45)-1,4-Dihydro-2,6-dimethyl-5-nitro-4-[2-(trifluormethyl)phenyl]-3-pyridinecarboxylic acid methyl ester]",ectopic activity (SMEs/SMA/STA) with agent alone,[2],SMA or SMEs do not occur
"COC(=O)c1c(C)[nH]c(C)c1C(=O)c1ccccc1Cc1ccccc1 [FPL-64176, 2,5-Dimethyl-4-[2-(phenylmethyl)benzoyl]-111-pyrrole-3-carboxylic acid methyl ester]",ectopic activity (SMEs/SMA/STA) with agent alone,[2],SMA or SMEs do not occur
CC(C)NCC(O)c1ccc(O)c(O)c1 (centres unmarked) [isoproterenol],ectopic activity (SMEs/SMA/STA) with agent alone,[2]; [4],quiescent in the absence of pacing
same,right atrial contraction frequency,rat right atria,276±11.4 contractions/min
C[C@@H]1O[C@@H](O[C@H]2C[C@@H](O)[C@]3(CO)[C@H]4[C@H](O)C[C@]5(C)[C@@H](C6=CC(=O)OC6)CC[C@]5(O)[C@@H]4CC[C@]3(O)C2)[C@H](O)[C@H](O)[C@H]1O [ouabain],ectopic activity (SMEs/SMA/STA) with agent alone,[2]; [4],does not affect their mechanical stability
ryanodine,ectopic activity (SMEs/SMA/STA) with agent alone,[2],"SMEs, SMA or STA does not occur"
